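Growth conditions: 96-well plates. Treatment: test compound, 48 hours, 5 concentrations. Analysis: linear interpolation between bracketing concentrations; unreached endpoints set to highest concentration. GI50 = concentration required for 50% inhibition of growth.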 Active and inactive are the calls of the source. Cut-off read from the data, not from the text of the source: active = GI50 up to about 1.1 µM and inactive = higher.
Columns and labels:
Assay in all cases: growth of human tumour cells (NCI), 48 h
[1] = test system: 786-0
[2] = test system: A549
[3] = test system: HCC 2998
[4] = test system: HCT-15
[5] = test system: HL-60
[6] = test system: M14
[7] = test system: MCF7
[8] = test system: MDA-MB-231
[9] = test system: MDA-MB-435
[10] = test system: Malme-3M
[11] = test system: NCI-H226
[12] = test system: OVCAR-3
[13] = test system: OVCAR-8
[14] = test system: RPMI-8226
[15] = test system: RXF 393
[16] = test system: SF-268
[17] = test system: SK-MEL-2
[18] = test system: SN12C
[19] = test system: SNB-75
[20] = test system: SR

SMILES | GI50 [1] | GI50 [2] | GI50 [3] | GI50 [4] [µM] | GI50 [5] | GI50 [6] | GI50 [7] | GI50 [8] | GI50 [9] | GI50 [10] | GI50 [11] | GI50 [12] | GI50 [13] | GI50 [14] | GI50 [15] | GI50 [16] | GI50 [17] | GI50 [18] | GI50 [19] | GI50 [20]
CS/C(Nc1ccccc1)=C1\C(=O)N(c2ccccc2)N=C1C | > 100 µM (inactive) | > 100 µM (inactive) | > 100 µM (inactive) | > 100 | > 100 µM (inactive) | > 100 µM (inactive) | > 100 µM (inactive) | > 100 µM (inactive) | > 100 µM (inactive) | > 100 µM (inactive) | > 100 µM (inactive) | > 100 µM (inactive) | > 100 µM (inactive) | > 100 µM (inactive) | > 100 µM (inactive) | > 100 µM (inactive) | > 100 µM (inactive) | > 100 µM (inactive) | > 100 µM (inactive) | > 100 µM (inactive)
O=C(/C=C/c1cccs1)c1ccccc1Cl | 14.1 µM (inactive) | 0.417 µM (active) | 16.8 µM (inactive) | 10.6 | 5.81 µM (inactive) | 1.99 µM (inactive) | 4.65 µM (inactive) | 19.2 µM (inactive) | 10.9 µM (inactive) | 12.2 µM (inactive) | 32.8 µM (inactive) | 14.1 µM (inactive) | 23.7 µM (inactive) | 16 µM (inactive) | 7.24 µM (inactive) | 11.4 µM (inactive) | 20.1 µM (inactive) | 15.9 µM (inactive) | 13.4 µM (inactive) | 4.2 µM (inactive)
O=C(Nc1ccccc1)c1cc2cc(CCl)ccc2oc1=O | 48.8 µM (inactive) | 99.3 µM (inactive) | > 100 µM (inactive) | > 100 | 41.6 µM (inactive) | > 100 µM (inactive) | 26.4 µM (inactive) | 64.1 µM (inactive) | > 100 µM (inactive) | > 100 µM (inactive) | > 100 µM (inactive) | > 100 µM (inactive) | > 100 µM (inactive) | > 100 µM (inactive) | 33.4 µM (inactive) | 47 µM (inactive) | 4.8 µM (inactive) | > 100 µM (inactive) | 34.7 µM (inactive) | 41.5 µM (inactive)
O=C(O)C(Cc1c[nH]c2ccccc12)C(=O)NO (stereo not given) | > 100 µM (inactive) | > 100 µM (inactive) | > 100 µM (inactive) | > 100 | 53.7 µM (inactive) | > 100 µM (inactive) | > 100 µM (inactive) | > 100 µM (inactive) | > 100 µM (inactive) | > 100 µM (inactive) | > 100 µM (inactive) | 96.8 µM (inactive) | > 100 µM (inactive) | > 100 µM (inactive) | > 100 µM (inactive) | > 100 µM (inactive) | > 100 µM (inactive) | > 100 µM (inactive) | > 100 µM (inactive) | > 100 µM (inactive)
O=C1Nc2ccccc2/C1=C1/Nc2ccccc2/C1=N\OCCOC1OCC(O)C(O)C1O (stereo not given) | > 100 µM (inactive) | > 100 µM (inactive) | 25.5 µM (inactive) | > 100 | > 100 µM (inactive) | 43.4 µM (inactive) | 53.2 µM (inactive) | > 100 µM (inactive) | > 100 µM (inactive) | > 100 µM (inactive) | 69.3 µM (inactive) | > 100 µM (inactive) | > 100 µM (inactive) | > 100 µM (inactive) | 50.6 µM (inactive) | > 100 µM (inactive) | 3.49 µM (inactive) | > 100 µM (inactive) | > 100 µM (inactive) | 33 µM (inactive)
COc1ccc2cc(CNCCOCCOCCNCc3ccc4cc(OC)ccc4c3)ccc2c1 | 0.953 µM (active) | 1.58 µM (inactive) | 0.104 µM (active) | 0.527 | 0.216 µM (active) | 0.26 µM (active) | 0.887 µM (active) | 1 µM (active) | 0.494 µM (active) | 1.43 µM (inactive) | 1.55 µM (inactive) | 1.73 µM (inactive) | 1.49 µM (inactive) | 0.209 µM (active) | 1.53 µM (inactive) | 1.42 µM (inactive) | 1.53 µM (inactive) | 1.72 µM (inactive) | 1.38 µM (inactive) | 0.251 µM (active)
Fc1ccc(OCc2nc3cc(C(F)(F)F)ccc3nc2-c2ccccc2)cc1 | > 100 µM (inactive) | > 100 µM (inactive) | 99.5 µM (inactive) | > 66.2 | > 47 µM (inactive) | > 94 µM (inactive) | 67.8 µM (inactive) | > 100 µM (inactive) | > 63.8 µM (inactive) | > 58.9 µM (inactive) | > 100 µM (inactive) | > 100 µM (inactive) | > 100 µM (inactive) | 46.6 µM (inactive) | > 100 µM (inactive) | > 100 µM (inactive) | > 100 µM (inactive) | > 100 µM (inactive) | > 100 µM (inactive) | 41.9 µM (inactive)
CC(=O)Nc1ccc(-c2nc3ccccc3s2)cc1Br | 35.6 µM (inactive) | > 86.9 µM (inactive) | 0.29 µM (active) | > 59.7 | > 100 µM (inactive) | 77.4 µM (inactive) | 0.141 µM (active) | 39.2 µM (inactive) | > 100 µM (inactive) | > 62.1 µM (inactive) | 2.42 µM (inactive) | 0.305 µM (active) | 31 µM (inactive) | > 92.9 µM (inactive) | 23.4 µM (inactive) | 44.3 µM (inactive) | > 100 µM (inactive) | > 78.9 µM (inactive) | 32.1 µM (inactive) | > 100 µM (inactive)
C=C=C(C)[Si](C)(C)C | > 100 µM (inactive) | > 100 µM (inactive) | > 100 µM (inactive) | > 100 | 23.7 µM (inactive) | > 100 µM (inactive) | > 100 µM (inactive) | > 100 µM (inactive) | > 100 µM (inactive) | > 100 µM (inactive) | > 100 µM (inactive) | > 100 µM (inactive) | > 100 µM (inactive) | > 100 µM (inactive) | > 100 µM (inactive) | > 100 µM (inactive) | > 100 µM (inactive) | > 100 µM (inactive) | 96.2 µM (inactive) | > 100 µM (inactive)
O=c1c2cc(-c3ccccc3)cnc2sn1-c1ccc(Br)cc1 | > 100 µM (inactive) | > 100 µM (inactive) | > 100 µM (inactive) | 88.9 | > 100 µM (inactive) | > 100 µM (inactive) | > 100 µM (inactive) | > 100 µM (inactive) | > 100 µM (inactive) | 51.8 µM (inactive) | > 100 µM (inactive) | 37 µM (inactive) | > 100 µM (inactive) | > 100 µM (inactive) | > 100 µM (inactive) | > 100 µM (inactive) | > 100 µM (inactive) | > 100 µM (inactive) | > 100 µM (inactive) | > 100 µM (inactive)

Reference: ChEMBL document CHEMBL1201862, “PubChem BioAssay data set” (2004)
